The record followed here is ChEMBL document CHEMBL5393457, “Combined inhibition of amino acid transporters for inhibiting human plasmacytoid dendritic cell activity during autoimmunity” (2022).

For test [1], the target named is Large neutral amino acids transporter small subunit 1 (Homo sapiens) (UniProt Q01650). In words: Inhibition of human LAT1 at 100 uM relative to control.
In test [2] the target is Tyrosine-protein kinase JAK2 (Homo sapiens) (UniProt O60674). Description: Inhibition of JAK2 in IL3- and CpG-A-activated human plasmacytoid dendritic cells at 20 nM assessed as decrease in ENPP2/IFNA2 expression. It counts as cell-based. As to conditions: Plasmacytoid dendritic cell.
Tyrosine-protein kinase JAK2 (Homo sapiens), sequence (O60674 whole entry): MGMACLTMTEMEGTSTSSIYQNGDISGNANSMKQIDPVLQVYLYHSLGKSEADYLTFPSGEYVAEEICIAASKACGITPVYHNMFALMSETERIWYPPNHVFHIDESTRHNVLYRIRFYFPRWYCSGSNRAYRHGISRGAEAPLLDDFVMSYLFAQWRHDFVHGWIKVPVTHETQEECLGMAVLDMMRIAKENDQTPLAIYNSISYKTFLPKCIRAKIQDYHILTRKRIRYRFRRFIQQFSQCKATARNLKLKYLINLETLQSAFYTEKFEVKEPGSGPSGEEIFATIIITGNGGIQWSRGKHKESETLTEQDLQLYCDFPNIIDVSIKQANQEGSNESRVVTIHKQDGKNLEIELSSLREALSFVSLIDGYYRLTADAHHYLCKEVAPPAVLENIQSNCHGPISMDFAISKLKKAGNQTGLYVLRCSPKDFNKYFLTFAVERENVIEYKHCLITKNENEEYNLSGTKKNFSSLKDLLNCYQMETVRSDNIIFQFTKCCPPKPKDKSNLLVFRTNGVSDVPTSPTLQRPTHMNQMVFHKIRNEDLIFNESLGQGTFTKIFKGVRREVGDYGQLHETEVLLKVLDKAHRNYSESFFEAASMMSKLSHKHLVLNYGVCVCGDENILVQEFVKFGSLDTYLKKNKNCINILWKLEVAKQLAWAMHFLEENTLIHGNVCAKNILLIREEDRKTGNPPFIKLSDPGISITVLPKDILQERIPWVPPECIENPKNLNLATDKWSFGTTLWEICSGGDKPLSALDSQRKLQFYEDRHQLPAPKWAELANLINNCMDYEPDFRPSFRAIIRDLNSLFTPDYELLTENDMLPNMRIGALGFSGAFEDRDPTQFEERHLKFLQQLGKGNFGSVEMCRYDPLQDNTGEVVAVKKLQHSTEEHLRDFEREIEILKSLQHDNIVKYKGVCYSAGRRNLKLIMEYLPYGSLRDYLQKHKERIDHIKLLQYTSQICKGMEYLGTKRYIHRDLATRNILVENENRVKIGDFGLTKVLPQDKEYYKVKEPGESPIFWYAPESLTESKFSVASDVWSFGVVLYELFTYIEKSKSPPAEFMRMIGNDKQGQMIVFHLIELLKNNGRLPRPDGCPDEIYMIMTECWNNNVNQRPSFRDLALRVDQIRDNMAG
For test [3] the target is unchanged. Description: Inhibition of JAK2 in TLR9-activated human plasmacytoid dendritic cells at 20 nM assessed as decrease in CpG-A stimulated SLC7A11 expression. As to conditions: Plasmacytoid dendritic cell. It counts as cell-based.
The target of test [4] is T1, mTORC1 (Homo sapiens) (UniProt P42345+Q8N122+Q9BVC4). The note with it: Plasmacytoid dendritic cell, dose 250.0 nM.
T1 sequence (Q8N122 whole entry, looked up, other chains not shown): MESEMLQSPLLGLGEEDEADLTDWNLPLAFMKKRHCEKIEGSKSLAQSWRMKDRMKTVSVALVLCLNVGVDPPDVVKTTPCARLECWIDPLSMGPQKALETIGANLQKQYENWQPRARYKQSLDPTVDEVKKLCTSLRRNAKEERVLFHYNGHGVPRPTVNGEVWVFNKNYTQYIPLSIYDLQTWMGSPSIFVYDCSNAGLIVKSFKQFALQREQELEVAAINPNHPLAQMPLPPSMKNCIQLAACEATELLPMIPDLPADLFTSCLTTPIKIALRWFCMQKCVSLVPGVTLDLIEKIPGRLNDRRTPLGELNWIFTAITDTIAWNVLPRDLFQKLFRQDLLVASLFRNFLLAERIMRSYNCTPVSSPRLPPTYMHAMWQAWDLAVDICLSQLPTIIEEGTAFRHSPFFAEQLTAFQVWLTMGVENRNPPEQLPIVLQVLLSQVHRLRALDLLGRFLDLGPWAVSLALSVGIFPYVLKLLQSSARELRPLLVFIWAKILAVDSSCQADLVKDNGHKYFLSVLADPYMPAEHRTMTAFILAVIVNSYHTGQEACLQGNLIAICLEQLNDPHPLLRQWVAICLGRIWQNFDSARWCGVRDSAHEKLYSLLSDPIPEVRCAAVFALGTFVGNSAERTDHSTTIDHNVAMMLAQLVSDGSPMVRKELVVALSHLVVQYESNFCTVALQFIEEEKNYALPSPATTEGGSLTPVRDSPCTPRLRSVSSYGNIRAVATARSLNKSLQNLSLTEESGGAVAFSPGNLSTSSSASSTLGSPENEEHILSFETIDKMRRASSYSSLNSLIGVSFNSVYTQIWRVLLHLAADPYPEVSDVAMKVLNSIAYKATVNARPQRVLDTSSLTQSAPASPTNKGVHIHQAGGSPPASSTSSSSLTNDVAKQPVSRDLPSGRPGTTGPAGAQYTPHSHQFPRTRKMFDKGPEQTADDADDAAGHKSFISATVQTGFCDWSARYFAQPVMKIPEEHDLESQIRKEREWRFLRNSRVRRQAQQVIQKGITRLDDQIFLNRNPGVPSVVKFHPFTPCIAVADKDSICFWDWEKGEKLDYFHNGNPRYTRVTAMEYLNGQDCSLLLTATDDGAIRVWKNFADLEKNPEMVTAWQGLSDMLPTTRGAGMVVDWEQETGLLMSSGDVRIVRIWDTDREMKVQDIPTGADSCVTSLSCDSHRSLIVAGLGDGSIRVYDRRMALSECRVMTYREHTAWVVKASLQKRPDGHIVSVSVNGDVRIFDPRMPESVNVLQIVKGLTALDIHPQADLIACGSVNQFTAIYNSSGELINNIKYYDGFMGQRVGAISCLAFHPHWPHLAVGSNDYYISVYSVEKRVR
T1 sequence (Q9BVC4 whole entry, looked up, other chains not shown): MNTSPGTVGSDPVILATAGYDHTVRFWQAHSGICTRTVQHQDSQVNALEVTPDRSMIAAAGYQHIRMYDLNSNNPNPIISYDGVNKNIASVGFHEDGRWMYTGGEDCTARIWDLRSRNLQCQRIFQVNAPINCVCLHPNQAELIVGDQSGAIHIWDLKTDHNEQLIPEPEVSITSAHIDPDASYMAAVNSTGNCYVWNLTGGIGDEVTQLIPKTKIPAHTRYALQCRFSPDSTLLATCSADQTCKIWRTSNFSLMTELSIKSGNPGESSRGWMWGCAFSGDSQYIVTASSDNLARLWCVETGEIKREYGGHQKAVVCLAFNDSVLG
Description: Inhibition of mTORC1 in CpG-A-stimulated human plasmacytoid dendritic cells at 250 nM assessed as decrease in lactate release
Test [5] has as its target Tyrosine-protein kinase JAK2 (Homo sapiens) (UniProt O60674). In words: Inhibition of JAK2 in IL3- and CpG-A-activated human plasmacytoid dendritic cells at 20 nM assessed as decrease in MYO1E/IFNA2 expression. In kind it is cell-based. As to conditions: Plasmacytoid dendritic cell.
For test [6], the target named is T1, mTORC1 (Homo sapiens). As to conditions: Plasmacytoid dendritic cell, dose 20.0 nM.
Description: Inhibition of mTORC1 in CpG-A-stimulated human plasmacytoid dendritic cells at 20 nM assessed as decrease in lactate release
The target in test [7] is Tyrosine-protein kinase JAK2 (Homo sapiens) (UniProt O60674). In words: Inhibition of JAK2 in CpG-A and GM-CSF-activated human plasmacytoid dendritic cells at 1 uM assessed as decrease in kynurenine uptake. As to conditions: Plasmacytoid dendritic cell. In kind it is cell-based.
The target is the same in test [8]. In words: Inhibition of JAK2 in CpG-A and GM-CSF-activated human plasmacytoid dendritic cells at 1 uM assessed as decrease in IFN-alpha production. As to conditions: Plasmacytoid dendritic cell. It counts as cell-based.
The target is the same in test [9]. Description: Inhibition of JAK2 in CpG-A and GM-CSF-activated human plasmacytoid dendritic cells at 1 uM assessed as decrease in mTORC1 activity. In kind it is cell-based. The note with it: Plasmacytoid dendritic cell.
The target is the same in test [10]. Description: Inhibition of JAK2 in CpG-A and GM-CSF-activated human plasmacytoid dendritic cells at 1 uM assessed as decrease in TNF production. It counts as cell-based. As to conditions: Plasmacytoid dendritic cell.
Test [11] concerns the target T2, Signal transducer and activator of transcription 5A (Homo sapiens) (UniProt P42229).
T2 sequence (whole entry): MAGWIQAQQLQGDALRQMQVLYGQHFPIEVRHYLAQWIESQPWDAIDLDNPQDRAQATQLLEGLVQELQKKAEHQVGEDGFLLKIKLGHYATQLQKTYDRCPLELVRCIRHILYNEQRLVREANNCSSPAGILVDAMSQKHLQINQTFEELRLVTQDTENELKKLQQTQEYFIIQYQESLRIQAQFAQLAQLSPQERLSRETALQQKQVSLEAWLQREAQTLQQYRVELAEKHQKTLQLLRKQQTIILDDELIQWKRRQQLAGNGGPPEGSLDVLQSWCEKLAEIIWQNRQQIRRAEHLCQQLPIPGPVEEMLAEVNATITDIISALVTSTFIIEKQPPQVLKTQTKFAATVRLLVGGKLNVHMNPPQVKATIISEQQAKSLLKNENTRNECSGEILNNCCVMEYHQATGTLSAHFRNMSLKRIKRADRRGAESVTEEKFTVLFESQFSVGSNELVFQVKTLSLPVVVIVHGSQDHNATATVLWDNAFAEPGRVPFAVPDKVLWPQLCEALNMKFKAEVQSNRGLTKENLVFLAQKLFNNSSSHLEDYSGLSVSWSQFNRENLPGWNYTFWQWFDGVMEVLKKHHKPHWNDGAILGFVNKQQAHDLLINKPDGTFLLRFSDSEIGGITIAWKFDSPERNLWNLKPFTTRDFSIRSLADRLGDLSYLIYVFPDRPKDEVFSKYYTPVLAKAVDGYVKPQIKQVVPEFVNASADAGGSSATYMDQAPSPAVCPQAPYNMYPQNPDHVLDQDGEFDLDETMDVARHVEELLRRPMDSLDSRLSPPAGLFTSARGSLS
In words: Inhibition of STAT5 in IL-3 and CpG-A-stimulated human plasmacytoid dendritic cells at 1 to 2 uM assessed as decrease in TNF production in presence of 100 uM sulfasalazine. As to conditions: Plasmacytoid dendritic cell, dose 1-2 µM. In kind it is cell-based.

Test [12] deals with T2, Signal transducer and activator of transcription 5A (Homo sapiens). In words: Inhibition of STAT5 in IL-3 and CpG-A-stimulated human plasmacytoid dendritic cells at 1 to 2 uM assessed as decrease in IFN-alpha production in presence of 100 uM sulfasalazine. In kind it is cell-based. The note with it: Plasmacytoid dendritic cell, dose 1-2 µM.
The target of test [13] is T3, Cystine/glutamate transporter (Homo sapiens) (UniProt Q9UPY5).
T3 sequence (whole entry): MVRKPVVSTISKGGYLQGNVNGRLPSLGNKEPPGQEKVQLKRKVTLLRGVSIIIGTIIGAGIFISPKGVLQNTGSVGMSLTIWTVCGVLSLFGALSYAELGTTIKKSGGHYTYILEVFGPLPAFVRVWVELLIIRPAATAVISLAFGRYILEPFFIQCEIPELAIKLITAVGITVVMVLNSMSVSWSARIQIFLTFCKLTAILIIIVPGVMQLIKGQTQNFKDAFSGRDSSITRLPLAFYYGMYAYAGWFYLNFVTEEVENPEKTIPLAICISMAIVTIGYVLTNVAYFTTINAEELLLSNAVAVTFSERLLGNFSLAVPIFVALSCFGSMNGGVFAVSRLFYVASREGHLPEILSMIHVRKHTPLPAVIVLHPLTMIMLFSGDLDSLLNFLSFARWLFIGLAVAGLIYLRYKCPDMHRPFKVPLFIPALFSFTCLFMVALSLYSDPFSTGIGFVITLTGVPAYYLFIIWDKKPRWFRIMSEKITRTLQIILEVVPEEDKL
In words: Inhibition of XCT in CpG-A-activated human plasmacytoid dendritic cells at 25 to 100 uM assessed as decrease in TNF production in presence of 100 uM sulfasalazine. In kind it is cell-based. As to conditions: Plasmacytoid dendritic cell, dose 25-100 µM.

Test [14] deals with T2, Signal transducer and activator of transcription 5A (Homo sapiens). Description: Inhibition of STAT5 in IL-3 and CpG-A-stimulated human plasmacytoid dendritic cells at 10 to 50 nM assessed as decrease in IFN-alpha production in presence of 100 uM sulfasalazine. In kind it is cell-based. The note with it: Plasmacytoid dendritic cell, dose 10-50 nM.
Test [15] has the same target. Description: Inhibition of STAT5 in IL-3 and CpG-A-stimulated human plasmacytoid dendritic cells at 10 to 50 nM assessed as decrease in TNF production in presence of 100 uM sulfasalazine. In kind it is cell-based. As to conditions: Plasmacytoid dendritic cell, dose 10-50 nM.
Test [16] deals with T3, Cystine/glutamate transporter (Homo sapiens). Description: Inhibition of XCT in CpG-A-activated human plasmacytoid dendritic cells at 10 uM assessed as decrease in ENPP2 expression. In kind it is cell-based. As to conditions: Plasmacytoid dendritic cell.
The target is the same in test [17]. In words: Inhibition of XCT in CpG-A-activated human plasmacytoid dendritic cells at 1 uM assessed as decrease in TNF production. It counts as cell-based. As to conditions: Plasmacytoid dendritic cell.
Test [18] shares this target. In words: Inhibition of XCT in IL-3 CpG-A-activated human plasma at 10 uM assessed as decrease in pDC activation.
Test [19] has the same target. Description: Inhibition of XCT in CpG-A-activated human plasmacytoid dendritic cells at 5 uM assessed as decrease in TNF production. It counts as cell-based. As to conditions: Plasmacytoid dendritic cell.
Test [20] has the same target. In words: Inhibition of XCT in CpG-A-activated human plasmacytoid dendritic cells at 5 uM assessed as decrease in IFN-alpha production. In kind it is cell-based. The note with it: Plasmacytoid dendritic cell.
For test [21] the target is unchanged. Description: Inhibition of XCT in CpG-A-activated human plasmacytoid dendritic cells at 5 uM assessed as decrease in S6 phosphorylation. As to conditions: Plasmacytoid dendritic cell. In kind it is cell-based.
Test [22] has the same target. In words: Inhibition of XCT in CpG-A-activated human plasmacytoid dendritic cells at 1 uM assessed as decrease in IFN-alpha production. It counts as cell-based. The note with it: Plasmacytoid dendritic cell.
Test [23] has the same target. In words: Inhibition of XCT in CpG-A-activated human plasmacytoid dendritic cells at 10 uM assessed as decrease in MYO1E expression. In kind it is cell-based. As to conditions: Plasmacytoid dendritic cell.
Test [24] shares this target. In words: Inhibition of XCT in CpG-A-activated human plasmacytoid dendritic cells at 5 uM assessed as decrease in kynurenine uptake. In kind it is cell-based. The note with it: Plasmacytoid dendritic cell.

Calls of active or inactive are those of the source. The rule behind the calls is not given here. Where only a bound is given, the exact number is not on record here.

Large neutral amino acids transporter small subunit 1 (Homo sapiens), sequence (Q01650 whole entry): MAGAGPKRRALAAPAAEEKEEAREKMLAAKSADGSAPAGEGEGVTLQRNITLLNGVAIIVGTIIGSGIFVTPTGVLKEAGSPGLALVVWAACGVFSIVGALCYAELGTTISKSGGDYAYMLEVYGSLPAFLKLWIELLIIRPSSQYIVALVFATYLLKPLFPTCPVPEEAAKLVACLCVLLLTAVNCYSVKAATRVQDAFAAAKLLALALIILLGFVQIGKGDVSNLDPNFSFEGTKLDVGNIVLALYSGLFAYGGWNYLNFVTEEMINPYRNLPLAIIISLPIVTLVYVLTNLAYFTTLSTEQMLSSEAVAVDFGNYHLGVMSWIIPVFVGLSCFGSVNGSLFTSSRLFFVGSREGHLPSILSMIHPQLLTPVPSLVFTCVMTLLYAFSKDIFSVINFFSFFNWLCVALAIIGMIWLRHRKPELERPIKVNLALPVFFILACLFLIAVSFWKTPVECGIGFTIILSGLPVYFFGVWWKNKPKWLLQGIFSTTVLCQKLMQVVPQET

With `N#Cc1cc(Br)ccc1/N=c1\ssnc1Cl`, the inhibition in [1] was greater than 90%.
For `CO[C@H]1CC2CC[C@@H](C)[C@@](O)(O2)C(=O)C(=O)N2CCCC[C@H]2C(=O)O[C@H]([C@H](C)C[C@@H]2CC[C@@H](O)[C@H](OC)C2)CC(=O)[C@H](C)/C=C(\C)[C@@H](O)[C@@H](OC)C(=O)[C@H](C)C[C@H](C)/C=C/C=C/C=C/1C`, the inhibition result (in test [2]; in test [3]; at mTORC1 (Homo sapiens) [4]; in [5]; at mTORC1 (Homo sapiens) [6]) was “Active” throughout.
On to `Cc1cc(Nc2nc(N[C@@H](C)c3ncc(F)cn3)ncc2Cl)[nH]n1`, for which the inhibition result in test [7], in [8], in test [9] and in test [10] was “Active” in each case.
As to `O=c1[nH]c2ccccc2n1C1CCN(CCCC(c2ccc(F)cc2)c2ccc(F)cc2)CC1`, the inhibition result in test [11] and in [12] was “Active” in each case.
In the case of `CCS(=O)(=O)N1CC(CC#N)(n2cc(-c3ncnc4[nH]ccc34)cn2)C1`, the inhibition result in [13] was “Active”.
With `CN(C)CCNc1nc2ccccc2c2[nH]c3ccccc3c12`, the inhibition entry in [14] and in test [15] was “Active” each time.
Take `CCOc1ccccc1-n1c(C(C)N2CCN(C(=O)COc3ccc(Cl)cc3)CC2)nc2ccccc2c1=O` (stereo unspecified): the inhibition result in test [16], in test [17], in test [18], in test [19], in [20] and in [21] was “Active” throughout. Moreover, the inhibition result in [22], in test [23] and in test [24] was “Active” in each case.
Molecule `N#Cc1ccc(Cl)cc1/N=c1\ssnc1Cl` showed an inhibition in test [1] greater than 90%.
The same measure, in the same setting: the same measure for `FC(F)(F)Oc1ccc(/N=c2\ssnc2Cl)cc1`: greater than 90%.
